Measured values taken from the supplement of paper PMC10307832.

Experiments:
Assay in all cases: relative viability (nuclei count vs DMSO), 5 days (fraction); higher = more cells survive
[1] = compound: CCn1c(-c2nonc2N)nc2cnc(Oc3cccc(NC(=O)c4ccc(OCCN5CCOCC5)cc4)c3)cc21 + CS(=O)(=O)N1CCN(Cc2cc3nc(-c4cccc5[nH]ncc45)nc(N4CCOCC4)c3s2)CC1 [Pictilisib] (partner 1 µM)
How it was run: (§1)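 A single step with final 0.05% Triton X-100, 1% formaldehyde and 1 ug/ml Hoechst fixed the cells and stained nuclei 5 days after treatment. Lung cancer cell lines in 1536-well plates had been treated by pin tool the day after seeding with one drug alone or a fixed anchor-drug dose plus five library-drug doses (not always all listed) in √10 steps, and nuclei were counted on 4× images. Relative viability is the ratio of nuclei in treated wells to nuclei in vehicle wells, taken as the median of duplicate plates.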

[2] = compound: CCn1c(-c2nonc2N)nc2cnc(Oc3cccc(NC(=O)c4ccc(OCCN5CCOCC5)cc4)c3)cc21 + O=C(c1cc(Cc2n[nH]c(=O)c3ccccc23)ccc1F)N1CCN(C(=O)C2CC2)CC1 [Olaparib] (partner 8 µM)
How it was run: as §1

[3] = compound: CCC1=CN=CN=C1N2CCN(CC2)CC3=NC4=C(N3)C=C(C=C4)C(F)(F)F + CC(=O)Nc1cccc(-n2c(=O)n(C3CC3)c(=O)c3c(Nc4ccc(I)cc4F)n(C)c(=O)c(C)c32)c1 [Trametinib] (partner 0.02 µM)
How it was run: as §1

[4] = compound: CCC1=CN=CN=C1N2CCN(CC2)CC3=NC4=C(N3)C=C(C=C4)C(F)(F)F + C[C@@H](Oc1cc(-c2cnn(C3CCNCC3)c2)cnc1N)c1c(Cl)ccc(F)c1Cl [Crizotinib] (partner 1 µM)
How it was run: as §1

Cell Line	relative viability ([1]; first compound 0.04 µM)	relative viability ([1]; first compound 0.1265 µM)	relative viability ([1]; first compound 0.4 µM)	relative viability ([1]; first compound 1.265 µM)	relative viability ([1]; first compound 4 µM)	relative viability ([2]; first compound 0.04 µM)	relative viability ([2]; first compound 0.1265 µM)	relative viability ([2]; first compound 0.4 µM)	relative viability ([2]; first compound 1.265 µM)	relative viability ([2]; first compound 4 µM)	relative viability ([3]; first compound 0.04 µM)	relative viability ([3]; first compound 0.1265 µM)	relative viability ([3]; first compound 0.4 µM)	relative viability ([3]; first compound 1.265 µM)	relative viability ([3]; first compound 4 µM)	relative viability ([4]; first compound 0.04 µM)	relative viability ([4]; first compound 0.1265 µM)	relative viability ([4]; first compound 0.4 µM)	relative viability ([4]; first compound 1.265 µM)	relative viability ([4]; first compound 4 µM)
NCI-H358	0.339	0.401	0.316	0.384	0.216	0.709	0.612	0.792	0.572	0.521	0.126	0.173	0.171	0.127	0.142	0.581	0.73	0.92	1.15	1.68
NCI-H1734	0.47	0.415	0.282	0.309	0.249	0.654	0.583	0.557	0.442	0.328	0.581	0.668	0.604	0.65	0.709	0.655	0.679	0.751		1.12
A-427	0.879	0.674	0.666	0.526	0.402	0.704	0.685	0.601	0.198	0.264	0.631	0.731	0.675	0.615	0.637	0.918	0.825	1.04	0.714	0.865
SK-LU-1	0.686	0.448	0.432	0.336	0.416	0.571	0.305	0.327	0.235	0.257	0.635	0.483	0.465	0.35	0.476	1	1.1	0.99	1.06	1.02
NCI-H838	0.397	0.292	0.231	0.286	0.256	0.405	0.347	0.383	0.221	0.222	0.574	0.481	0.455	0.412	0.648	0.917	0.845	0.908	0.947	1.27
LCLC-97TM1	0.261	0.363		0.351	0.236	0.518	0.381		0.387	0.423	0.195	0.164	0.183	0.238	0.2	0.389	0.354	0.387	0.413	0.502
BEN	0.574	0.501	0.43	0.285	0.318	1.29	0.894	0.714	0.368	0.415	1.09	1.18	0.975	0.742	0.709	0.924	0.868	0.963	0.532	0.662
NCI-H2023	0.315	0.293	0.199	0.231	0.221	0.472	0.438	0.408	0.264	0.245	0.533	0.53	0.527	0.513	0.453	0.712	0.655	0.713	0.713	1.07
LC-2-ad	0.683	0.729	0.372	0.451	0.386	0.753	0.677	0.716	0.438	0.334	0.976	0.814	0.938	0.921	0.871	0.501	0.431	0.503	0.749	0.852
NCI-H650	1.09	0.809	0.594	0.484	0.542	0.374	0.377	0.279	0.259	0.236	0.95	0.996	0.985	0.814	0.856	0.741	0.724	0.765	0.757	1.1
NCI-H1755	0.484	0.391	0.327	0.331	0.3	0.89	0.891	0.864	0.851	0.833	0.828	0.769	0.759	0.68	0.799	0.963	0.809	0.948	0.89	1.06
EPLC-272H	0.406	0.341	0.181	0.258	0.281	1.09	0.928	0.827	0.449	0.365	0.289	0.26	0.32	0.284	0.325	0.81	0.867	0.89	0.959	1.19
NCI-H1437	0.383	0.39	0.257	0.443	0.283	0.696	0.624	0.591	0.485	0.49	0.539	0.42	0.421	0.423	0.438	0.969	0.799	0.964	0.903	0.752
EKVX	0.46	0.505	0.491	0.406	0.481	1.18	0.856	0.802	0.635	0.79	0.415	0.384	0.379	0.32	0.309	1.22	0.728	0.915	0.873	1.07
NCI-H1651	0.762	0.667	0.456	0.486	0.345	0.18	0.182	0.195	0.17	0.169	0.884	0.855	0.846	0.791	0.797	0.889	0.839	0.845	0.837	0.913
